Earlier results on one substance are cited in patent publication US6620446B2, “Antibacterial composition for control of gram positive bacteria in food applications” (Rhodia, Inc., priority 2000, dated 2003).

This series deals with L. monocytogenes. Particulars: reported by M. Doyle, Food Technology 1988.

Regarding nisin, the “initial inhibition of the organism's growth, duration” value is recorded as “about 12 hours”.
